Reference: US7858349B2, “Anti-cancer compounds” (The Regents of the University of Colorado, priority 1999, dated 2010)

What follows are compounds tested on SCLC strain SHP-77 (assay: MTT assay for cell survival, SCLC SHP-77 in vitro). Details: ED50 for killing of SCLC strain SHP-77 in vitro, 4 days, 0 = no detectable activity, read-out: SCLC SHP-77 IC50.
Type: cell-based, human

Compared with `O=C(/C=C/c1c(F)c(F)c(F)c(F)c1F)N[C@@H](Cc1ccc(OCc2c(Cl)cccc2Cl)cc1)C(=O)N1CCN(C/C=C/c2ccccc2)CC1` [Analog M-1564, F5c-OC2Y-tCip], `O=C(/C=C/c1c(F)c(F)c(F)c(F)c1F)N[C@@H](Cc1ccc(OCc2c(Cl)cccc2Cl)cc1)C(=O)N1CCCN(Cc2ccccc2)CC1` [Analog M-1606, F5c-OC2Y-Bhp] is 4.2-fold higher in IC50: 4 µM for the first, 17 µM for the second.

Compared with `CC1(C)CC(NC(=O)[C@H](Cc2ccc(OCc3c(Cl)cccc3Cl)cc2)NC(=O)c2ccc(N)nc2)CC(C)(C)N1` [Analog M-1596, 6Ani-OC2Y-Atmp], `CC1(C)CC(NC(=O)C(Cc2ccc(OCc3c(Cl)cccc3Cl)cc2)NC(=O)c2cccnc2)CC(C)(C)N1` (stereo not drawn) [Analog M-1704, Pyrc-OC2Y-Atmp] is lower in IC50: greater than 60 µM for the first, 25 µM for the second. The second is the more potent here.

First: CC(=O)Nc1nc(C)c(S(=O)(=O)N[C@@H](Cc2ccc(OCc3c(Cl)cccc3Cl)cc2)C(=O)NC2CC(C)(C)NC(C)(C)C2)s1 [Analog M-1628, Amts-OC2Y-Atmp]
Second: CC1(C)CC(NC(=O)C(Cc2ccc(OCc3c(Cl)cccc3Cl)cc2)NC(=O)C(C)(C)C)CC(C)(C)N1 (stereo not drawn) [Analog M-1736, Piva-OC2Y-Atmp]
The IC50 of the first is 3.5-fold higher: 45 µM for the first, 13 µM for the second.

First: O=C(/C=C/c1c(F)c(F)c(F)c(F)c1F)N[C@@H](Cc1ccc(OCc2c(Cl)cccc2Cl)cc1)C(=O)NCCCn1ccnc1 [Analog M-1642, F5c-OC2Y-Apia]
Second: O=C(C=Cc1c(F)c(F)c(F)c(F)c1F)NC(Cc1ccc(OCc2c(Cl)cccc2Cl)cc1)C(=O)N1CCN(Cc2c(F)c(F)c(F)c(F)c2F)CC1 (stereo not drawn) [Analog M-1732, F5c-OC2Y-Pipz(F5b)]
The IC50 of the first is 1.8-fold higher: 42 µM for the first, 24 µM for the second.

Compared with `CC1(C)CC(NC(=O)C(Cc2ccc(OCc3c(Cl)cccc3Cl)cc2)NC(=O)C=Cc2ccccc2Cl)CC(C)(C)N1` (stereo not drawn) [Analog M-1652, 2Ccn-OC2Y-Atmp], `CC1(C)CC(NC(=O)C(Cc2ccc(OCc3c(Cl)cccc3Cl)cc2)NC(=O)C=Cc2ccc(-c3ccccc3)cc2)CC(C)(C)N1` (stereo not drawn) [Analog M-1776, Pcin-OC2Y-Atmp] is 2.9-fold lower in IC50: 4.1 µM for the first, 1.4 µM for the second. The second is the more potent here.

First: O=C(N[C@@H](Cc1ccc(OCc2c(Cl)cccc2Cl)cc1)C(=O)N1CCN(C/C=C/c2ccccc2)CC1)C(=Cc1ccccc1)c1ccccc1 [Analog M-1654, Pcn-OC2Y-tCip]
Second: O=C(N[C@@H](Cc1ccc(OCc2c(Cl)cccc2Cl)cc1)C(=O)N1CCN(c2ncccn2)CC1)C(=Cc1ccccc1)c1ccccc1 [Analog M-1670, Pcn-OC2Y-Pmpz]
The IC50 of the first is higher: greater than 60 µM for the first, 50 µM for the second. The second is the more potent here.

First: O=C(CCCC[C@@H]1SC[C@@H]2NC(=O)N[C@@H]21)N[C@@H](Cc1ccc(OCc2c(Cl)cccc2Cl)cc1)C(=O)N1CCN(C/C=C/c2ccccc2)CC1 [Analog M-1656, Biot-OC2Y-tCip]
Second: O=C(c1ccccc1)c1ccc2n1CCC2C(=O)N[C@@H](Cc1ccc(OCc2c(Cl)cccc2Cl)cc1)C(=O)N1CCN(C/C=C/c2ccccc2)CC1 (stereo partly drawn) [Analog M-1666, Ktlc-OC2Y-tCip]
The IC50 of the first is lower: 5.5 µM for the first, greater than 60 µM for the second. The first is the more potent here.

`CN1CCN(CCCNC(=O)[C@H](Cc2ccc(OCc3c(Cl)cccc3Cl)cc2)NC(=O)C(=Cc2ccccc2)c2ccccc2)CC1` [Analog M-1658, Pcn-OC2Y-Amp] and `CN1CCN(CCCNC(=O)C(Cc2ccc(OCc3c(Cl)cccc3Cl)cc2)NC(=O)c2c3ccccc3nc3ccccc23)CC1` (stereo not drawn) [Analog M-1700, Acrc-OC2Y-Amp] are within 1.5-fold of each other in IC50: 10 µM for the first, 7.3 µM for the second.

First: O=C(N[C@@H](Cc1ccc(OCc2c(Cl)cccc2Cl)cc1)C(=O)NC1CCN(Cc2ccccc2)CC1)C(=Cc1ccccc1)c1ccccc1 [Analog M-1660, Pcn-OC2Y-Abzp]
Second: CC1CN(C(=O)C(Cc2ccc(OCc3c(Cl)cccc3Cl)cc2)NC(=O)C(=Cc2ccccc2)c2ccccc2)CC(C)N1Cc1ccccc1 (stereo not drawn) [Analog M-1662, Pcn-OC2Y-cDmbp]
The IC50 of the first is 1.6-fold higher: 31 µM for the first, 20 µM for the second.

Going from `CC1CN(C(=O)C(Cc2ccc(OCc3c(Cl)cccc3Cl)cc2)NC(=O)C2CCn3c(C(=O)c4ccccc4)ccc32)CC(C)N1Cc1ccccc1` (stereo not drawn) [Analog M-1664, Ktlc-OC2Y-cDmbp] to `O=C(c1ccccc1)c1ccc2n1CCC2C(=O)N[C@@H](Cc1ccc(OCc2c(Cl)cccc2Cl)cc1)C(=O)NC1CCN(Cc2ccccc2)CC1` (stereo partly drawn) [Analog M-1668, Ktlc-OC2Y-Abzp], the IC50 falls from greater than 60 µM to 4.6 µM.

Going from `O=C(CC12CC3CC(CC(C3)C1)C2)N[C@@H](Cc1ccc(OCc2c(Cl)cccc2Cl)cc1)C(=O)N1CCN(c2ncccn2)CC1` [Analog M-1672, Aaa-OC2Y-Pmpz] to `O=C([C@H](Cc1ccc(OCc2c(Cl)cccc2Cl)cc1)NC(=O)C12CC3CC(CC(C3)C1)C2)N1CCN(c2ncccn2)CC1` [Analog M-1680, Aca-OC2Y-Pmpz], the IC50 falls from greater than 50 µM to 33 µM. The second is the more potent here.

`CN1CCN(CCCNC(=O)[C@H](Cc2ccc(OCc3c(Cl)cccc3Cl)cc2)NC(=O)C2CCn3c(C(=O)c4ccccc4)ccc32)CC1` (stereo partly drawn) [Analog M-1674, Ktlc-OC2Y-Amp] and `CN1CCN(CCCNC(=O)C(Cc2ccc(OCc3c(Cl)cccc3Cl)cc2)NC(=O)c2ccc3c(c2)C(=O)c2ccccc2C3=O)CC1` (stereo not drawn) [Analog M-1702, Aq2c-OC2Y-Amp] are within 1.5-fold of each other in IC50: 3.2 µM for the first, 3.6 µM for the second.

`CN1CCN(CCCNC(=O)[C@H](Cc2ccc(OCc3c(Cl)cccc3Cl)cc2)NC(=O)C23CC4CC(CC(C4)C2)C3)CC1` [Analog M-1676, Aca-OC2Y-Amp] and `O=C(NC1CCN(Cc2ccccc2)CC1)[C@H](Cc1ccc(OCc2c(Cl)cccc2Cl)cc1)NC(=O)C12CC3CC(CC(C3)C1)C2` [Analog M-1678, Aca-OC2Y-Abzp] are within 1.5-fold of each other in IC50: 6.2 µM for the first, 7.8 µM for the second.

`CC1(C)CC(NC(=O)[C@@H](Cc2ccc(OCc3c(Cl)cccc3Cl)cc2)NC(=O)C(=Cc2ccccc2)c2ccccc2)CC(C)(C)N1` [Analog M-1682, Pcn-D-OC2Y-Atmp] and `CC1(C)CC(NC(=O)C(Cc2cc(I)c(OCc3c(Cl)cccc3Cl)c(I)c2)NC(=O)C(=Cc2ccccc2)c2ccccc2)CC(C)(C)N1` (stereo not drawn) [Analog M-1760, Pcn-OCIY-Atmp] are within 1.5-fold of each other in IC50: 1.8 µM for the first, 2 µM for the second.

`CC1(C)CC(NC(=O)C(NC(=O)C(=Cc2ccccc2)c2ccccc2)C2Cc3ccccc3C2)CC(C)(C)N1` (stereo not drawn) [Analog M-1684, Pcn-Igl-Atmp] and `CC1(C)CC(NC(=O)C2Cc3ccccc3CN2C(=O)C(=Cc2ccccc2)c2ccccc2)CC(C)(C)N1` (stereo not drawn) [Analog M-1770, Pcn-Tic-Atmp] are within 1.5-fold of each other in IC50: 4.2 µM for the first, 5.4 µM for the second.

Compared with `CC1(C)CC(NC(=O)C(NC(=O)C2CCn3c(C(=O)c4ccccc4)ccc32)C2Cc3ccccc3C2)CC(C)(C)N1` (stereo not drawn) [Analog M-1686, Ktlc-Igl-Atmp], `COc1ccc2c(c1)c(CC(=O)NC(C(=O)NC1CC(C)(C)NC(C)(C)C1)C1Cc3ccccc3C1)c(C)n2C(=O)c1ccc(Cl)cc1` (stereo not drawn) [Analog M-1688, Indo-Igl-Atmp] is 3.5-fold lower in IC50: 14 µM for the first, 4 µM for the second. The second is the more potent here.

`O=C(C=Cc1c(F)c(F)c(F)c(F)c1F)NC(C(=O)N1CCN(Cc2c(F)c(F)c(F)c(F)c2F)CC1)C1Cc2ccccc2C1` (stereo not drawn) [Analog M-1690, F5c-Igl-Pipz(F5b)] and `O=C(C=Cc1c(F)c(F)c(F)c(F)c1F)NC(Cc1c(F)c(F)c(F)c(F)c1F)C(=O)N1CCN(Cc2c(F)c(F)c(F)c(F)c2F)CC1` (stereo not drawn) [Analog M-1730, F5c-F5F-Pipz(F5b)] are within 1.5-fold of each other in IC50: 25 µM for the first, 21 µM for the second.

`CC1(C)CC(NC(=O)[C@H](Cc2ccc(OCc3c(Cl)cccc3Cl)cc2)NC(=O)C(Cl)Cl)CC(C)(C)N1` [Analog M-1692, Dcla-OC2Y-Atmp] and `CC(C)(C)CC(=O)NC(Cc1ccc(OCc2c(Cl)cccc2Cl)cc1)C(=O)NC1CC(C)(C)NC(C)(C)C1` (stereo not drawn) [Analog M-1748, tBua-OC2Y-Atmp] are within 1.5-fold of each other in IC50: 7.2 µM for the first, 7.1 µM for the second.

Compared with `CC1(C)CC(NC(=O)C(Cc2ccc(OCc3c(Cl)cccc3Cl)cc2)NC(=O)c2cccc3ccccc23)CC(C)(C)N1` (stereo not drawn) [Analog M-1706, 1Nap-OC2Y-Atmp], `CC1(C)CC(NC(=O)C(Cc2ccc(OCc3c(Cl)cccc3Cl)cc2)NC(=O)Cc2cccc3ccccc23)CC(C)(C)N1` (stereo not drawn) [Analog M-1708, 1Nala-OC2Y-Atmp] is 1.7-fold higher in IC50: 4.2 µM for the first, 7.2 µM for the second.

First: CC1(C)CC(NC(=O)C(Cc2ccc(OCc3c(Cl)cccc3Cl)cc2)NC(=O)Cc2ccc3ccccc3c2)CC(C)(C)N1 (stereo not drawn) [Analog M-1710, 2Nala-OC2Y-Atmp]
Second: Cc1nc2ccccc2c(C(=O)NC(Cc2ccc(OCc3c(Cl)cccc3Cl)cc2)C(=O)NC2CC(C)(C)NC(C)(C)C2)c1O (stereo not drawn) [Analog M-1716, Hmqc-OC2Y-Atmp]
The IC50 of the first is 4.2-fold lower: 1.7 µM for the first, 7.2 µM for the second. The first is the more potent here.

`CC1(C)CC(NC(=O)C(Cc2ccc(OCc3c(Cl)cccc3Cl)cc2)NC(=O)c2cccnc2Cl)CC(C)(C)N1` (stereo not drawn) [Analog M-1714, 2Cln-OC2Y-Atmp] and `CO[C@](C(=O)NC(Cc1ccc(OCc2c(Cl)cccc2Cl)cc1)C(=O)NC1CC(C)(C)NC(C)(C)C1)(c1ccccc1)C(F)(F)F` (stereo partly drawn) [Analog M-1750, (S)-MTPA-OC2Y-Atmp] are within 1.5-fold of each other in IC50: 4 µM for the first, 4.2 µM for the second.

Going from `C=CC(=O)NC(NC(=O)C=C)C(=O)NC(Cc1ccc(OCc2c(Cl)cccc2Cl)cc1)C(=O)NC1CC(C)(C)NC(C)(C)C1` (stereo not drawn) [Analog M-1718, Baaa-OC2Y-Atmp] to `CCC(C(=O)NC(Cc1ccc(OCc2c(Cl)cccc2Cl)cc1)C(=O)NC1CC(C)(C)NC(C)(C)C1)C1CCCCC1` (stereo not drawn) [Analog M-1746, Chbu-OC2Y-Atmp], the IC50 falls from greater than 60 µM to 1.6 µM.

First: O=C(NC(Cc1ccc(OCc2c(Cl)cccc2Cl)cc1)C(=O)N1CCN(Cc2c(F)c(F)c(F)c(F)c2F)CC1)C(=Cc1ccccc1)c1ccccc1 (stereo not drawn) [Analog M-1734, Pcn-OC2Y-Pipz(F5b)]
Second: CC1(C)CC(NC(=O)C(Cc2ccc(-c3ccccc3)cc2)NC(=O)C(=Cc2ccccc2)c2ccccc2)CC(C)(C)N1 (stereo not drawn) [Analog M-1764, Pcn-Bip-Atmp]
The IC50 of the first is 9.6-fold higher: 24 µM for the first, 2.5 µM for the second.

Going from `COc1ccc2c(CC(=O)NC(Cc3ccc(OCc4c(Cl)cccc4Cl)cc3)C(=O)NC3CC(C)(C)NC(C)(C)C3)cc(=O)oc2c1` (stereo not drawn) [Analog M-1744, Mcoa-OC2Y-Atmp] to `CO[C@@](C(=O)NC(Cc1ccc(OCc2c(Cl)cccc2Cl)cc1)C(=O)NC1CC(C)(C)NC(C)(C)C1)(c1ccccc1)C(F)(F)F` (stereo partly drawn) [Analog M-1752, (R)-MTPA-OC2Y-Atmp], the IC50 falls from 7.1 µM to 4 µM (1.8-fold).

First: CC1(C)CC(NC(=O)C(Cc2ccc(OCc3c(Cl)cccc3Cl)cc2)NC(=O)C(c2ccc(Cl)cc2)c2ccc(Cl)cc2)CC(C)(C)N1 (stereo not drawn) [Analog M-1754, Bcpa-OC2Y-Atmp]
Second: CC1(C)CC(NC(=O)C(Cc2cc(I)c(OCc3c(Cl)cccc3Cl)c(I)c2)NC(=O)C(c2ccc(Cl)cc2)c2ccc(Cl)cc2)CC(C)(C)N1 (stereo not drawn) [Analog M-1762, Bcpa-OCIY-Atmp]
The IC50 of the first is 2-fold lower: 1.5 µM for the first, 3 µM for the second. The first is the more potent here.

Work on `CC1(C)CC(NC(=O)C(Cc2ccc(-c3ccccc3)cc2)NC(=O)C(Oc2ccc(Cl)cc2)Oc2ccc(Cl)cc2)CC(C)(C)N1` (stereo not drawn) [Analog M-1766, Bcpoa-Bip-Atmp] yielded an IC50 of 2 µM.
